# Source: ChEMBL document CHEMBL4321865, “Discovery of Novel Inhibitors of LpxC Displaying Potent in Vitro Activity against Gram-Negative Bacteria” (J Med Chem, 2020)
# What was measured:
# Pseudomonas aeruginosa [1] = assay: microbe, parasite or virus in culture; conditions: ATCC 27853
# Description: Antimicrobial activity against Pseudomonas aeruginosa ATCC 27853 by broth microdilution method
# Klebsiella pneumoniae = assay: microbe, parasite or virus in culture; conditions: T 6474
# Description: Antibacterial activity against multi-drug resistant Klebsiella pneumoniae T 6474 by broth microdilution method
# Pseudomonas aeruginosa [2] = assay: microbe, parasite or virus in culture; conditions: PAO1
# Description: Antimicrobial activity against wild-type Pseudomonas aeruginosa PAO1 by broth microdilution method
# [3] = test system: T1, UDP-3-O-acyl-N-acetylglucosamine deacetylase (Escherichia coli K-12), P0A725 [C125S]
# T1 sequence (whole entry): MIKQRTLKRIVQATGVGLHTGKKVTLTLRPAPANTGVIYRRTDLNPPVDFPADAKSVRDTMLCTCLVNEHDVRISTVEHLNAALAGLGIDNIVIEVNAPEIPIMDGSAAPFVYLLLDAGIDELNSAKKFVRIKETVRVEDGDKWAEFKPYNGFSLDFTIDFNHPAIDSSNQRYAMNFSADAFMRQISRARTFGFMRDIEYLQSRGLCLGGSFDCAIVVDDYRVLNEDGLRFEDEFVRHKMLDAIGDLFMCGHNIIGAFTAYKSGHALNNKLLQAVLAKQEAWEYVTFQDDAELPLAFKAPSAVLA
# physchem [4] = conditions: DMSO, pH 4
# Description: Solubility of the compound in DMSO at pH 4 incubated for 24 hrs by LC-UV method
# Escherichia coli = assay: microbe, parasite or virus in culture; conditions: ATCC 25922
# Description: Antibacterial activity against wild-type Escherichia coli ATCC 25922 by broth microdilution method
# [5] = test system: T2, UDP-3-O-acyl-N-acetylglucosamine deacetylase (Pseudomonas aeruginosa (strain ATCC 15692 / PAO1 / 1C / PRS 101 / LMG12228)), P47205 [C40S]
# T2 sequence (whole entry): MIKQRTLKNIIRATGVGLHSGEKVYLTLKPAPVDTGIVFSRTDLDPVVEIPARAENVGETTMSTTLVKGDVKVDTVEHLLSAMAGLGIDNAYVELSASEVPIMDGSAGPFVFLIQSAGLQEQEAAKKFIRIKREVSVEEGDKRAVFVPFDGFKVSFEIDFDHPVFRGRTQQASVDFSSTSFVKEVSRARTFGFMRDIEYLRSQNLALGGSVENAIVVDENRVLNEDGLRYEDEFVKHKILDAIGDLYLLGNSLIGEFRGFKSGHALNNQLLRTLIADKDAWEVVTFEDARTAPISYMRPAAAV
# physchem [6] = conditions: DMSO, pH 7
# Description: Solubility of the compound in DMSO at pH 7 incubated for 24 hrs by LC-UV method
# physchem [7] = conditions: n-octanol/phosphate buffered saline, pH 7.4
# Description: n-Octanol/phosphate buffered saline partition coefficient, log D of the compound at pH 7.4 by LC-UV method
# physchem [8] = conditions: DMSO, pH 9
# Description: Solubility of the compound in DMSO at pH 9 incubated for 24 hrs by LC-UV method
SMILES,MIC (Pseudomonas aeruginosa [1]) [µg/mL],MIC (Klebsiella pneumoniae) [µg/mL],MIC (Pseudomonas aeruginosa [2]) [µg/mL],ΔTm [3] [°C],solubility at 24 h (physchem [4]) [µg/mL],MIC (Escherichia coli) [µg/mL],ΔTm [5] [°C],solubility at 24 h (physchem [6]) [µg/mL],logD (physchem [7]),solubility at 24 h (physchem [8]) [µg/mL]
C[C@@](CCN1Cc2cc(C#CC#C[C@@H]3C[C@H]3CO)cn2C1=O)(C(=O)NO)S(C)(=O)=O,0.5,0.25,0.5,10.8,600,0.12,13.6,–,–,–
C[C@@](CCN1Cc2cc(C#CC#CC3(CO)CC3)sc2C1=O)(C(=O)NO)S(C)(=O)=O,1,1,1,10.9,443,1,14.2,> 760,1.2,> 760
C[C@@](CCN1Cc2cc(C#CC#CCOC(=O)N3CCC(O)CC3)cn2C1=O)(C(=O)NO)S(C)(=O)=O,2,1,2,9.4,641,0.5,12.9,785,0.9,> 880
CC(C)(O)C#CC#Cc1ccc2c(c1)CN(CC[C@](C)(C(=O)NO)S(C)(=O)=O)C2=O,2,2,2,8.5,71,1,12.6,97,1.2,564
CC(C)(O)c1ccc(C#Cc2ccc3c(c2)CN(CC[C@](C)(C(=O)NO)S(C)(=O)=O)C3=O)cc1,4,0.5,8,9.5,4,0.25,12.8,7,2.3,136
C[C@@](CCN1Cc2cc(C#CC#CC3(O)COC3)cn2C1=O)(C(=O)NO)S(C)(=O)=O,2,2,4,8.8,> 740,1,11.3,> 740,0.3,> 740
C[C@@](CCN1Cc2cc(C#Cc3ccc([C@H]4C[C@@H]4CO)cc3)cn2C1=O)(C(=O)NO)S(C)(=O)=O,0.5,≤ 0.06,1,12.1,11,≤ 0.06,13.4,24,1.4,170
C[C@@](CCN1Cc2cc(C#Cc3ccc(CN4CCOCC4)cc3)ccc2C1=O)(C(=O)NO)S(C)(=O)=O,2,0.5,2,11,> 890,0.12,13.8,148,1.8,> 890
C[C@@](CCN1Cc2cc(C#Cc3ccc(C4(CO)CC4)cc3)cn2C1=O)(C(=O)NO)S(C)(=O)=O,0.5,0.25,0.5,11.8,5,0.12,13.6,7,2,56
C[C@@](CCN1Cc2cc(C#CC#C[C@@H]3C[C@H]3CO)sc2C1=O)(C(=O)NO)S(C)(=O)=O,0.5,0.25,0.5,11.2,464,0.12,15,377,1.3,380
C[C@@](CCN1Cc2cc(C#CC#CC3(N)CC3)sc2C1=O)(C(=O)NO)S(C)(=O)=O.Cl,1,0.5,1,10,> 740,0.25,12.5,207,1,> 740
CC(C)(O)C#CC#Cc1cc2n(c1)C(=O)N(CC[C@](C)(C(=O)NO)S(C)(=O)=O)C2,1,1,2,9.9,398,0.5,12.3,> 710,0.9,> 710
C[C@@](CCN1Cc2cc(C#Cc3ccc(C4(O)COC4)cc3)cn2C1=O)(C(=O)NO)S(C)(=O)=O,0.5,0.5,1,10.8,195,0.12,13,> 820,1.2,> 820
C[C@@](CCN1Cc2cc(C#Cc3ccc(C4(O)COC4)cc3)sc2C1=O)(C(=O)NO)S(C)(=O)=O,0.5,0.5,2,11.4,114,0.12,14.3,> 850,1.5,> 850
C[C@@](CCN1Cc2cc(C#Cc3ccc(CN4CCOCC4)cc3)sc2C1=O)(C(=O)NO)S(C)(=O)=O,1,0.12,1,13,> 900,≤ 0.06,15.5,155,1.8,571
C[C@@](CCN1Cc2cc(C#Cc3ccc(CN4CCOCC4)cc3)cn2C1=O)(C(=O)NO)S(C)(=O)=O,1,0.25,1,11.9,802,–,13.6 to 13.9,68,1.6,621
C[C@@](CCN1Cc2cc(C#Cc3ccc(COC(=O)N4CCC(O)CC4)cc3)cn2C1=O)(C(=O)NO)S(C)(=O)=O,2,0.5,2,11.8,< 1,0.25,14.2,15,1.7,251
C[C@@](CCN1Cc2cc(C#CC#CC3(O)COC3)sc2C1=O)(C(=O)NO)S(C)(=O)=O,4,4,4,7.4,> 760,2,12.2,> 760,0.5,> 760
CC(C)(O)c1ccc(C#Cc2cc3c(s2)C(=O)N(CC[C@](C)(C(=O)NO)S(C)(=O)=O)C3)cc1,0.5,0.25,1,13,69,0.12,15.5,83,2.1,613
C[C@@](CCN1Cc2cc(C#Cc3ccc([C@@H]4C[C@H]4CO)cc3)cn2C1=O)(C(=O)NO)S(C)(=O)=O,0.5,≤ 0.06,1,12.1,73,≤ 0.06,13.4,112,2,568
C[C@@](CCN1Cc2cc(C#Cc3ccc(CNS(C)(=O)=O)cc3)cn2C1=O)(C(=O)NO)S(C)(=O)=O,1,0.5,1,11.2,1,0.25,13.2,3,1,56
C[C@@](CCN1Cc2cc(C#CC#C[C@H](O)CO)cn2C1=O)(C(=O)NO)S(C)(=O)=O,4,8,8,7.3,–,8,10.3,–,–,–
CC(C)(O)c1ccc(C#Cc2cc3n(c2)C(=O)N(CC[C@](C)(C(=O)NO)S(C)(=O)=O)C3)cc1,0.5,0.25,1,11.8,70,0.12,13.7,110,1.9,556
C[C@@](CCN1Cc2cc(C#CC#CC3(O)COC3)ccc2C1=O)(C(=O)NO)S(C)(=O)=O,8,8,4,7,–,16,11.6,–,–,–
C[C@@](CCN1Cc2cc(C#CC#CCNS(C)(=O)=O)cn2C1=O)(C(=O)NO)S(C)(=O)=O,4,4,1,8,–,2,10.8,–,–,–
